# Experimental data as given in patent EP1283052A1, “Pharmaceutical composition containing caspase-8 and /or caspase-9 useful for overcoming glucocorticoid- and cancer therapy-induced apoptosis of tumours” (Deutsches Krebsforschungszentrum Stiftung des öffentlichen …, priority 2001, dated 2003).
# System: P5, P693 and CEM cells
# Assay: Mitochondrial membrane potential by JC-1 staining and flow cytometry
# Format: cell-based, human
# Conditions: 24 h, co-stimulation with cisplatin 2 µg/ml on top of DEX; Fig. 3a
# Experimental: • (a) P5, P693 or CEM cells, either untreated (CO) or stimulated with cisplatin (CIS, 2 µg/ml) were incubated in the absence (white bars) or presence (black bars) of DEX (1 µM). 24 h later cells were stained with the cationic dye JC-1 which indicates mitochondrial depolarization by an increase in green fluorescence. The percentage of green-fluorescent cells was determined by flow cytometry. • (b) P5 cells were treated as described above. 6 or 24 h later mitochondrial fractions were prepared and assayed by Western blotting using a monoclonal antibody which specifically detects the 15 kDa cytochrome c protein. The results depicted here have been performed three times with similar outcome.
# • (A) Cell culture. […] The mice were given 0.28 mg/L DEX in drinking water, and the amount of water consumed was monitored. […] The tumour volumes were measured using callipers, and calculated using, as an approximation, the formula for volume of a hemi-ellipsoid: π(width^2 x length)/6. […] Early apoptotic changes were identified by staining of cells with fluoresceinthiocyanate (FITC)-conjugated annexin V and propidium iodide (Becton Dickinson, Heidelberg, Germany) and analysed by flow cytometry (FACScan, Becton Dickinson) as described (Herr et al., EMBO J. 16 (1997), 6200-6208) • (E) Immunohistochemistry. […] Protein expression was detected by Western blotting as described (Herr et al., 1997). […]
compound,measurement,value
N.N.[Cl][Pt][Cl] [cisplatin],percentage of green fluorescence (mitochondrial damage),further enhanced
